Data: the supplement of paper PMC8967900

Columns and labels:
Experiment in all cases: selective drug sensitivity score (sDSS, relative to normal bone marrow) (sDSS (score)); higher = more potent and effective on the cell line relative to normal bone marrow cells
Conditions in all cases: 72 h
CCRF-CEM = system: CCRF-CEM
KOPN-8 = system: KOPN-8
RPMI-8402 = system: RPMI-8402
MHH-CALL-4 = system: MHH-CALL-4
DND-41 = system: DND-41
KASUMI-10 = system: KASUMI-10
MOLT-14 = system: MOLT-14
COG-LL-319h = system: COG-LL-319h
COG-LL-355h = system: COG-LL-355h
P30-OHKUBO = system: P30-OHKUBO
P12-ICHIKAWA = system: P12-ICHIKAWA
NALL-1 = system: NALL-1
MN-60 = system: MN-60
697 = system: 697
MHH-CALL-3 = system: MHH-CALL-3
NALM-6 = system: NALM-6
KASUMI-9 = system: KASUMI-9
NALM-16 = system: NALM-16
COG-LL-332h = system: COG-LL-332h
KARPAS-45 = system: KARPAS-45
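Also: ALL cell lines in 384-well plates, five doses spanning 10,000-fold, each plate scaled between vehicle and 100 µmol/L benzalkonium chloride controls, sDSS an adapted area-under-curve metric.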

SMILES | selective drug sensitivity score (CCRF-CEM) | selective drug sensitivity score (KOPN-8) | selective drug sensitivity score (RPMI-8402) | selective drug sensitivity score (MHH-CALL-4) | selective drug sensitivity score (DND-41) | selective drug sensitivity score (KASUMI-10) | selective drug sensitivity score (MOLT-14) | selective drug sensitivity score (COG-LL-319h) | selective drug sensitivity score (COG-LL-355h) | selective drug sensitivity score (P30-OHKUBO) | selective drug sensitivity score (P12-ICHIKAWA) | selective drug sensitivity score (NALL-1) | selective drug sensitivity score (MN-60) | selective drug sensitivity score 697 | selective drug sensitivity score (MHH-CALL-3) | selective drug sensitivity score (NALM-6) | selective drug sensitivity score (KASUMI-9) | selective drug sensitivity score (NALM-16) | selective drug sensitivity score (COG-LL-332h) | selective drug sensitivity score (KARPAS-45)
CN1CCC(COc2cnc(-c3cccc(Cn4nc(-c5cccc(C#N)c5)ccc4=O)c3)nc2)CC1 [Tepotinib] (top concentration 1000 nM) | -0.08 | -0.08 | -0.08 | -0.08 | -0.08 | -0.08 | -0.08 | 2.22 | -0.08 | -0.08 | -0.08 | -0.08 | -0.08 | -0.08 | -0.08 | -0.08 | -0.08 | -0.08 | -0.08 | -0.08
COc1cc2ncnc(Nc3cccc(Cl)c3F)c2cc1OC(=O)N1CCN(C)C[C@H]1C [AZD3759] (top concentration 1000 nM) | -0.04 | -0.04 | -0.04 | -0.04 | -0.04 | -0.04 | -0.04 | 0.96 | -0.04 | -0.04 | -0.04 | 0.86 | -0.04 | -0.04 | -0.04 | -0.04 | -0.04 | -0.04 | -0.04 | -0.04
CN(CC(=O)N(Cc1ccc(C2CCCCC2)cc1)c1ccc(C(=O)O)cc1)S(=O)(=O)c1c(F)c(F)c(F)c(F)c1F [SH-4-54] (top concentration 25000 nM) | -4.54 | -1.94 | -5.74 | -5.44 | -2.74 | -3.64 | -4.34 | -3.04 | -0.54 | -5.24 | -6.04 | -6.84 | -6.54 | -2.64 | -0.84 | -3.34 | -6.14 | -5.04 | -0.04 | -4.24
C/C(=C\c1csc(C)n1)[C@@H]1C[C@@H]2O[C@]2(C)CCC[C@H](C)[C@H](O)[C@@H](C)C(=O)C(C)(C)[C@@H](O)CC(=O)N1 [Ixabepilone] (top concentration 1000 nM) | 3.08 | 6.98 | 2.78 | 0.58 | 1.28 | 1.58 | 4.58 | 3.68 | 2.48 | 3.78 | 2.58 | 1.68 | 1.48 | 4.68 | -0.42 | 4.48 | 2.58 | 2.88 | 4.08 | 3.68
CC[C@]12C=CCN3CC[C@@]4(c5cc([C@@]6(C(=O)OC)C[C@@H]7C[C@@H](C(C)(F)F)CN(Cc8c6[nH]c6ccccc86)C7)c(OC)cc5N(C)[C@H]4[C@@](O)(C(=O)OC)[C@@H]1OC(C)=O)[C@@H]32 [Vinflunine] (top concentration 1000 nM) | 3.98 | 7.08 | 4.78 | 0.58 | 0.18 | 4.08 | 3.78 | 2.98 | 2.68 | 3.68 | 3.98 | 2.98 | 0.58 | 4.68 | -0.12 | 5.18 | 6.78 | 4.08 | 3.78 | 4.48
O=C(O)CNC(=O)c1c(O)c2ccccc2n(Cc2ccccc2)c1=O [IOX-2] (top concentration 50000 nM) | -0.82 | 2.48 | -0.82 | -0.82 | -0.82 | -0.82 | -0.82 | 4.18 | -0.82 | -0.12 | -0.42 | -0.82 | -0.42 | 2.28 | 0.88 | -0.32 | -0.42 | -0.62 | -0.62 | -0.82
Cc1cc(C)c(CNC(=O)c2cc(-c3ccc(CN4CCOCC4)cc3)cc3c2cnn3C2CCCC2)c(=O)[nH]1 [EPZ-5687] (top concentration 10000 nM) | 0.14 | -0.36 | -0.16 | -0.36 | -0.36 | -0.36 | -0.36 | -0.36 | -0.36 | 2.24 | -0.36 | 5.34 | -0.36 | -0.36 | -0.36 | -0.36 | 3.14 | -0.36 | -0.36 | -0.26
Cc1cc(F)c(C(=O)Nc2cccc(-c3nncn3C(C)C)n2)cc1-n1cnc(C2CC2)c1 [Selonsertib] (top concentration 1000 nM) | 0 | 0 | 0 | 0.2 | 0 | 0 | 0 | 0 | 0 | 0.9 | 0 | 0 | 0 | 0.3 | 0 | 0 | 1.2 | 0 | 0 | 0
Cc1nc(C(=O)NCC(=O)O)c(O)c2ccc(Oc3ccccc3)cc12 [Roxadustat] (top concentration 10000 nM) | -1.02 | -0.92 | -0.82 | -1.12 | -1.12 | -1.12 | -0.32 | 2.28 | -1.12 | -1.12 | -0.82 | -1.12 | -1.12 | -0.92 | -1.12 | -1.12 | -0.82 | -1.12 | -1.02 | -1.12
CS(=O)(=O)CCNCc1ccc(-c2ccc3ncnc(Nc4ccc(OCc5cccc(F)c5)c(Cl)c4)c3c2)o1 [Lapatinib] (top concentration 1000 nM) | 0 | 0 | 0 | 0 | 0 | 0 | 0 | 0 | 0 | 0.3 | 0 | 0 | 0 | 0 | 0 | 0 | 0.2 | 0 | 0 | 0
CCn1cc(-c2ccnc3[nH]c(-c4cccc(CN(C)C)c4)cc23)c(-c2ccc(NC(=O)N(C)C)cc2)n1 (top concentration 1000 nM) | 18 | 11.2 | 8.86 | 7.46 | -0.84 | 9.86 | 15.9 | 22.9 | 8.36 | 26.6 | 15.4 | 13.1 | -1.84 | 20.5 | 2.06 | 13.8 | 20.3 | -1.84 | 19.3 | 24.1
COc1cc(NS(C)(=O)=O)ccc1Nc1c2ccccc2nc2ccccc12 [Amsacrine] (top concentration 10000 nM) | 15.1 | 18.3 | 14.4 | 13.2 | 4.16 | 11 | 18.8 | 18.2 | 11 | 13 | 13.5 | 5.66 | -1.84 | 20.6 | 23.5 | 10.7 | 16 | 0.66 | 20.1 | 1.76
CC(C)Cn1cnc2c(N)nc3ccccc3c21 [Imiquimod] (top concentration 2500 nM) | 0 | 2.7 | 0 | 0.9 | 0 | 0 | 0 | 0 | 0.6 | 0 | 0 | 0 | 0 | 0.4 | 0 | 0.4 | 0.9 | 0 | 0 | 0
CCc1cc2c(cc1N1CCC(N3CCOCC3)CC1)C(C)(C)c1[nH]c3cc(C#N)ccc3c1C2=O [Alectinib] (top concentration 1000 nM) | 0.18 | 1.38 | 2.08 | -0.12 | 0.08 | 1.68 | 1.08 | 2.48 | -0.02 | 1.68 | -0.22 | -0.22 | 0.98 | 2.48 | -0.22 | 1.28 | 0.88 | -0.22 | 0.18 | 1.28
C=CCc1cccc(/C=N/NC(=O)CN2CCN(Cc3ccccc3)CC2)c1O [PAC-1] (top concentration 10000 nM) | 5.18 | 5.28 | 1.78 | 1.18 | 4.78 | 0.98 | 8.28 | 1.18 | 2.08 | 1.18 | 1.68 | -0.42 | 4.08 | 4.08 | -0.22 | 2.18 | 0.38 | 3.58 | 7.08 | 3.28
C=C1C[C@@H]2CC[C@@]34C[C@H]5O[C@H]6[C@@H](O3)[C@H]3O[C@H](CC[C@@H]3O[C@H]6[C@H]5O4)CC(=O)C[C@@H]3[C@@H](OC)[C@@H](C[C@H](O)CN)O[C@H]3C[C@H]3O[C@@H](CC[C@@H]1O2)C[C@@H](C)C3=C [Eribulin] (top concentration 1000 nM) | 19.9 | 27 | 22.1 | 5.6 | 9.1 | 20.2 | 25.2 | 14.8 | 4.4 | 19.6 | 16.7 | 15.8 | 3.8 | 19.5 | 13.1 | 16 | 24 | 17.1 | 20.6 | 21.7
COC(=O)c1ccc([C@H]2c3[nH]c4ccccc4c3C[C@H](C(=O)OC)N2C(=O)CCl)cc1 [RSL3] (top concentration 10000 nM) | 0.2 | 0 | 1.2 | 0 | 0 | 0.3 | 0 | 0 | 3.8 | 2.7 | 0 | 5.2 | 0 | 0 | 0.7 | 1.5 | 0 | 0 | 0 | 0
